Publication PMC5847527, “Identification of a novel 2-oxindole fluorinated derivative as in vivo antitumor agent for prostate cancer acting via AMPK activation” (Scientific Reports, 2018)
Several values for one entry are separate records, joined by “and”; a condition that tells them apart may be missing. Equal values may be shown once.

Tests used:
[1] = target: T1, AMPK (Homo sapiens, UniProt Q13131); test: AMPK and ACC phosphorylation by Western blot in PC-3 cells; assay type: cell-based; conditions: 25 µM, 1 hour; for Thr172 phosphorylation of AMPK (pAMPK/AMPK): compared to controls
T1 construct: endogenous in cells; host or cells: PC-3, DU145, LNCaP
T1 sequence (Q13131 whole entry): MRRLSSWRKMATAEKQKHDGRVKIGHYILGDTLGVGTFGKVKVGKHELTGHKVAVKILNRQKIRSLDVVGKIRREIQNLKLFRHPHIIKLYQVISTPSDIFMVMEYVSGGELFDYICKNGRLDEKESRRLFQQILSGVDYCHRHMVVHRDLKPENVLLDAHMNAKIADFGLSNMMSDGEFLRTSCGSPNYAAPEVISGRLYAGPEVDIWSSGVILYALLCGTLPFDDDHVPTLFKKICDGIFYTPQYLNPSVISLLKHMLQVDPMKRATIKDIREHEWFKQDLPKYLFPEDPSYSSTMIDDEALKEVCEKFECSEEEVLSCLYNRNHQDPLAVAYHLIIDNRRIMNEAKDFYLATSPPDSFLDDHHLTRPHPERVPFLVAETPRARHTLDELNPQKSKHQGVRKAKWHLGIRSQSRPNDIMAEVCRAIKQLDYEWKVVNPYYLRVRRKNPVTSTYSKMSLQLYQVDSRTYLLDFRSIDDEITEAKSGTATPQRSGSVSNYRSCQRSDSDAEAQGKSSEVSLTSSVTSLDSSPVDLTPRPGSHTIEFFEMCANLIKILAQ
T1 sequence (Q9Y478 2-270 partner limits assumed): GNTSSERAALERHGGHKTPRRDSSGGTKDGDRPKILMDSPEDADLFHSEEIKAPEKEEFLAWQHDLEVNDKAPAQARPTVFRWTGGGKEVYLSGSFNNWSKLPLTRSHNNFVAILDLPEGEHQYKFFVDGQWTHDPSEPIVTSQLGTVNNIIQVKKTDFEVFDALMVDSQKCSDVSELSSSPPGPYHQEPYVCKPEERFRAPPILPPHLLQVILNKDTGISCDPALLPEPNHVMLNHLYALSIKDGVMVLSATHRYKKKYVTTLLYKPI
T1 sequence (P54619 whole entry partner): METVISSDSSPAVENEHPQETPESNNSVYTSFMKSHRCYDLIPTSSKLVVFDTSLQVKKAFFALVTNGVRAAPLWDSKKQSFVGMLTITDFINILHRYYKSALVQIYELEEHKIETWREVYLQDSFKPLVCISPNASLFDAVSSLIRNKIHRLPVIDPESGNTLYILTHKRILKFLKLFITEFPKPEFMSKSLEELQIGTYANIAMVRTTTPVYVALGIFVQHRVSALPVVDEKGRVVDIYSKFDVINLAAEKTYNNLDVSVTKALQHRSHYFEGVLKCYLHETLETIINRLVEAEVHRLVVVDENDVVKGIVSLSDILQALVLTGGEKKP
Text: To investigate the effect of the compounds on AMPK activity at cellular level, compounds 8a-c and 9a-b were selected to perform AMPK phosphorylation assays in human prostate cancer cell lines. We use the PC-3 cell line as it is androgen-resistant and represents the advanced and aggressive stage of prostate cancer. […] AMPK inhibits lipogenic pathway through phosphorylation of its well-known substrate acetyl-CoA carboxylase (ACC). To confirm the modulation of AMPK activity in prostate cells by the compounds, we determined levels of phosphorylated ACC in 2-oxindole fluorinated derivatives-treated cells. […] It is worthy to note that the highest ACC phosphorylation was obtained with compound 8c denoting a powerful activity of this compound in PC-3 cells.
(§1) Figure 2 Effect of 2-oxindole fluorinated derivatives on AMPK activity in prostate cancer cells. (A) PC-3, DU145 and LNCaP cells were treated with 25 µM of the selected 2-oxindole fluorinated derivatives for 1 hour. Levels of the phosphorylated AMPK (pAMPK), phosphorylated ACC (pACC) and their total forms were determined by Western blot. Upper panel, a representative Western blot of three different experiments. β-tubulin (β-Tub) serves as a loading control. […] Lower panels, densitometric analyses of bands represented as the mean of the ratio pAMPK/AMPK or pACC/ACC ± SD of three different experiments. *p < 0.05 compared with the controls by one-way ANOVA followed by Fisher’s LSD test; ^#p < 0.05 compared with 2-oxindole fluorinated derivates or with the AMPK activators AMP or A769662 by one-way ANOVA followed by Tukey test.
(§2) Human prostate cancer epithelial PC-3, DU145 and LNCaP and human prostate normal RWPE-1 cells were purchased from American Type Culture Collection (ATCC CRL-1435 CRL-1740 and CRL 11609 respectively) (Rockville, MD, USA). The human prostate normal PNT2 cell line was purchased to ECACC (European Collection of Cell cultures, Salisbury, SP4 0JG, UK). Cells were routinely grown in RPMI 1640 medium supplemented with 100 IU/ml penicillin G sodium, 100 µg/ml streptomycin sulfate, 0.25 µg/ml amphotericin B (Invitrogen, Paisley, UK) and 10% fetal calf serum. Cells were used at passages between 10–20. For treatment experiments, cells were plated and grown over night, the medium was then replaced with serum-free RPMI 1640 for 24 hours and then incubated with different doses of the compounds for the indicated times.
Cells were lysed in Lysis buffer (50 mM Tris pH 7.4, 0.8 M NaCl, 5 mM MgCl2, 0.1% Triton X-100) containing Protease Inhibitor and Phosphatase inhibitor Cocktails (Roche, Basel, Switzerland). Protein concentrations were measured by BioRad™ protein assay kit (Richmond, CA, USA). Equal amount of protein (20 μg) from each sample was separated on 8% SDS–PAGE gels and transferred to PVDF membranes (BioRad). The membranes were blocked with blocking buffer (1× TBS, 0.1% Tween 20 with 5% w/v fat-free dry milk), washed and incubated with primary antibodies at 4 °C for 12 h. The membranes were subsequently washed with TBS-T (1× TBS and 0.1% Tween 20) and incubated with horseradish peroxidase-conjugated anti-mouse or anti-rabbit IgG antibodies (Sigma, St Louis, MO, USA) at room temperature for 1 h. The immune complex was visualized with an ECL system (Cell Signaling Technology). Films were analyzed by densitometry. The anti-pAMPKα1-thr172, pACC-ser79, pP53, P21, pRaptor and the antibodies against the corresponding total forms were obtained from Cell Signaling Technology (Danvers, MA, USA). The anti-caspase 3 and anti-procaspase 3 were from Santa Cruz Biotechnology (Dallas, Texas, USA). The anti-HIF1A was from Novus Biologicals LLC (Littleton, CO, USA). The anti-Cyclin D1 antibody was obtained from ThermoFisher (Alcobendas, Madrid, Spain). All the other chemicals were obtained from Sigma (St. Louis, MO, USA).

[2] = tested on: DU145 cells; test: Cell viability by MTT assay, DU145; assay type: cell-based, human; conditions: DU145, 50 μM
Method: (§3) Figure 3 Comparison of the effect of 2-oxindole fluorinated derivatives on the proliferation of human prostate cancer cells. (A) Normal (PTN2 and RWPE-1) and cancer (PC3,DU145 and LNCaP) prostate cells were treated with different doses of the compounds for 24 hours and cell viability was monitored by MTT assay. […] (C) PC-3, DU145 and LNCaP cells were treated with 25 µM of compound 8c for different times. Values were normalized with the control and represent the mean ± SD of at least three independent experiments. *p < 0.05 and **p < 0.01 compared to control by the Student’s - test.
as §2
(§4) Cell viability was determined by 3-(4,5-dimethylthiazol-2-yl)-2,5-diphenyltetrazolium bromide (MTT) (Sigma-Aldrich) method. In brief, a total of 5000 cells/well were seeded into 12-well plate in a final volume of 1 mL. After treatments, 20 µl MTT solution (5 mg/ml in PBS) was added to the medium and cells were incubated at 37 °C for 4 h. Then, the supernatant was discarded and isopropanol was added to dissolve the formazan crystals. Treatments were carried out in triplicate. The optical density in each well was evaluated by measurement of absorbance at 490 and 650 nm using a microplate reader (ELX 800 Bio-Tek Intruments, INC). IC50 values were calculated using GraphPad Prism vs 6.0 (GraphPad Software, Inc, La Jolla, CA, USA). Cell viability was also determined by counting viable and dead cells by Trypan blue staining. Trypan blue positive and negative cells were counted using a Countess^TM automated cell counter (Invitrogen, Carlsbad, CA, USA). Results were expressed in relation to total number of cells counted.

[3] = tested on: LNCaP cells; test: Cell viability by MTT assay, LNCaP; assay type: cell-based, human; conditions: 50 μM
Method: as §3, §2
as §4, with “In brief, a total of 5000 cells/well were seeded into 12-well plate in a final volume of 1 mL. After treatments, 20 µl MTT solution (5 mg/ml in PBS) was added to the medium and cells were incubated at 37 °C for 4 h. Then, the supernatant was discarded and isopropanol was added to dissolve the formazan crystals. Treatments were carried out in triplicate.” left out

[4] = tested on: RWPE-1 cells; test: Cell viability by MTT assay, RWPE-1 normal prostate cells; assay type: cell-based, human; conditions: RWPE-1, 50 μM
Method: as §3, §2
as §4, with “In brief, a total of 5000 cells/well were seeded into 12-well plate in a final volume of 1 mL. After treatments, 20 µl MTT solution (5 mg/ml in PBS) was added to the medium and cells were incubated at 37 °C for 4 h. Then, the supernatant was discarded and isopropanol was added to dissolve the formazan crystals. Treatments were carried out in triplicate.” left out

[5] = tested on: PNT2 cells; test: Cell viability by MTT assay, PNT2 normal prostate cells; assay type: cell-based, human; conditions: PNT2, 50 μM
Method: as §3, §2
as §4, with “In brief, a total of 5000 cells/well were seeded into 12-well plate in a final volume of 1 mL. After treatments, 20 µl MTT solution (5 mg/ml in PBS) was added to the medium and cells were incubated at 37 °C for 4 h. Then, the supernatant was discarded and isopropanol was added to dissolve the formazan crystals. Treatments were carried out in triplicate.” left out

[6] = tested on: PC-3 cells; test: Cell viability by MTT assay, PC-3; assay type: cell-based, human; conditions: PC-3, 50 μM
Method: as §3, §2, §4

[7] = tested on: PTN2, RWPE-1, PC3, DU145 and LNCaP prostate cells; test: Cell viability by MTT assay, statements for the five cell lines together; assay type: cell-based, human; conditions: 1–100 µM, dose-dependent, 24 hours
Method: We then study the effect of the compounds on the proliferative capacity of PC-3, DU145 and LNCaP prostate cells. We also used the prostate cell lines PTN2 and RWPE-1 which are derived from a histologically normal adult and therefore are considered as normal prostate cells, for comparison. All the compounds were tested at concentrations ranging from 1 to 100 μM.
(A) Normal (PTN2 and RWPE-1) and cancer (PC3,DU145 and LNCaP) prostate cells were treated with different doses of the compounds for 24 hours and cell viability was monitored by MTT assay. […] Values were normalized with the control and represent the mean ± SD of at least three independent experiments. *p < 0.05 and **p < 0.01 compared to control by the Student’s - test.
Human prostate cancer epithelial PC-3, DU145 and LNCaP and human prostate normal RWPE-1 cells were purchased from American Type Culture Collection (ATCC CRL-1435 CRL-1740 and CRL 11609 respectively) (Rockville, MD, USA). The human prostate normal PNT2 cell line was purchased to ECACC (European Collection of Cell cultures, Salisbury, SP4 0JG, UK). Cells were routinely grown in RPMI 1640 medium supplemented with 100 IU/ml penicillin G sodium, 100 µg/ml streptomycin sulfate, 0.25 µg/ml amphotericin B (Invitrogen, Paisley, UK) and 10% fetal calf serum. Cells were used at passages between 10–20. […]
Cell viability was determined by 3-(4,5-dimethylthiazol-2-yl)-2,5-diphenyltetrazolium bromide (MTT) (Sigma-Aldrich) method. […] The optical density in each well was evaluated by measurement of absorbance at 490 and 650 nm using a microplate reader (ELX 800 Bio-Tek Intruments, INC). IC50 values were calculated using GraphPad Prism vs 6.0 (GraphPad Software, Inc, La Jolla, CA, USA). Cell viability was also determined by counting viable and dead cells by Trypan blue staining. Trypan blue positive and negative cells were counted using a Countess^TM automated cell counter (Invitrogen, Carlsbad, CA, USA). Results were expressed in relation to total number of cells counted.

[8] = tested on: AMPK; test: AMPK and ACC phosphorylation by Western blot in LNCaP cells; assay type: cell-based, human; conditions: 25 µM, 1 hour
Method: as §1
Similar results were obtained although AMPK stimulation by compound 8c was not so strong (Fig. 2A). […]
Cells were lysed in Lysis buffer (50 mM Tris pH 7.4, 0.8 M NaCl, 5 mM MgCl2, 0.1% Triton X-100) containing Protease Inhibitor and Phosphatase inhibitor Cocktails (Roche, Basel, Switzerland). Protein concentrations were measured by BioRad™ protein assay kit (Richmond, CA, USA). […] Films were analyzed by densitometry. […]

[9] = tested on: AMPK; test: Characterization of AMPK activation by Western blot in PC-3 and LNCaP cells (Dorsomorphin, siRNA); assay type: cell-based, human; conditions: PC-3 and LNCaP cells, 5 μM Dorsomorphin + 25 µM 8c, 1 h and 24 h
Method: To further confirm the compound 8c-induced activation of AMPK, PC-3 and LNCaP cells were incubated with the compound for 1 h and 24 hours in the presence of the AMPK inhibitor Dorsomorphin. […] Accordingly, ACC phosphorylation was increased at 1 h and 24 h and prevented by Dorsomorphin in both cell lines. AMPK inhibits mTORC1 through phosphorylation of Raptor on two well-conserved serine residues (ser722 and ser792) inducing cell-cycle arrest in response to an energy stress. To further support the 8c-induced AMPK activation, we determined Raptor phosphorylation on Ser792 in prostate cells.
Figure 5 AMPK activation by compound 8c in prostate cancer cells. (A) PC-3 and LNCaP cells were treated with vehicle, 25 µM compound 8c, 25 µM compound 8c + 5 μM Dorsomorphin (8c + D) or 5 μM Dorsomorphin (D), for 1 hour or 24 hours and levels of the phosphorylated AMPK (pAMPK), phosphorylated ACC (pACC), phosphorylated Raptor (pRaptor) forms and HIF1α were determined by Western blot. Upper panel, representative Western blot of three different experiments. β-tubulin (β-Tub) serves as a loading control. Lower panel, densitometric analyses of bands represented as the mean of the ratio pAMPK/AMPK or pACC/ACC. (B) Cell viability monitored by MTT assay in PC-3 and LNCaP cells treated with vehicle, 25 µM and 50 μM compound 8c alone or in the presence of 5 μM Dorsomorphin or transfected with control siRNA (siC) or α1AMPK-selective siRNA (siAMPK). (C) LNCaP cells were treated with vehicle, 25 µM compound 8c, 25 µM compound 8c + 5 μM Dorsomorphin (8c + D) or 5 μM Dorsomorphin (D), for 24 hours and levels of Androgen Receptor (AR), Prostate specific antigen (PSA) and Prostate specific membrane antigen (PSMA) were determined by Western blot.Values were normalized with the control and represent the mean ± SD of at least three independent experiments. *p < 0.05 and **p < 0.01 compared to control and ^#p < 0.05 and ^##p < 0.01 compared with 8c-treated group by the Student’s t-test.
AMPK is a heterotrimeric protein composed by catalytic (α) and regulatory (β and γ) subunits. In mammals, different isoforms of α, β and γ subunits can associate to produce up to 12 AMPK different combinations. […]
Figure 6 Phosphorylation of AMPK and ACC in prostate cells transfected with selective AMPKα1 or AMPKα2 siRNA. […] Levels of the phosphorylated AMPK (pAMPK), phosphorylated ACC (pACC) and their total forms were determined by Western blot. […]
Cells were lysed in Lysis buffer (50 mM Tris pH 7.4, 0.8 M NaCl, 5 mM MgCl2, 0.1% Triton X-100) containing Protease Inhibitor and Phosphatase inhibitor Cocktails (Roche, Basel, Switzerland). Protein concentrations were measured by BioRad™ protein assay kit (Richmond, CA, USA). […]

| SMILES | ACC phosphorylation (pACC/ACC) [1] | Thr172 phosphorylation of AMPK (pAMPK/AMPK) [1] | inhibitory efficacy on cells viability at 50 μM [2] | inhibitory efficacy on cells viability at 50 μM [6] | further results |
| --- | --- | --- | --- | --- | --- |
| O=C1Nc2ccccc2C1(F)Cc1ccc[nH]1 (stereo not shown) [Compound 8a, 3-((1H-pyrrol-2-yl)methyl)-3-fluoroindolin-2-one] | inhibited ACC phosphorylation | slightly, although significantly, inhibited AMPK phosphorylation | – | – | melting point: 143 to 146 °C |
| O=C1Nc2ccc(Cl)cc2C1(F)Cc1ccc(N2CCCC2)cc1 (stereo not shown) [Compound 8b, 5-chloro-3-fluoro-3-(4-(pyrrolidin-1-yl)benzyl)indolin-2-one] | inhibited ACC phosphorylation | slightly, although significantly, inhibited AMPK phosphorylation | 14% | 3% | inhibitory efficacy on cells viability at 50 μM [3]: 11%; inhibitory efficacy on cells viability at 50 μM [4]: 17%; inhibitory efficacy on cells viability at 50 μM [5]: 0% |
| O=C1N(Cc2ccccc2)c2ccccc2C1(F)Cc1ccc[nH]1 (stereo not shown) [Compound 9a, 3-((1H-pyrrol-2-yl)methyl)-1-benzyl-3-fluoroindolin-2-one] | inhibited ACC phosphorylation | slightly, although significantly, inhibited AMPK phosphorylation | – | – | inhibition of cell proliferation [7]: effectively inhibited cell proliferation |
| O=C1N(Cc2ccccc2)c2ccc(Cl)cc2C1(F)Cc1ccc(N2CCCC2)cc1 (stereo not shown) [Compound 9b, 1-benzyl-5-chloro-3-fluoro-3-(4-(pyrrolidin-1-yl)benzyl)indolin-2-one] | augmented pACC | weak AMPK activation | 14% and 17% | 27% and 23% | AMPK phosphorylation (pAMPK/AMPK) [8]: slightly increases AMPK phosphorylation in PC-3 cells but not in LNCaP cells |
| c1cc(-c2cnn3cc(-c4ccc(OCCN5CCCCC5)cc4)cnc23)ccn1 [Dorsomorphin, reference compound] | – | – | – | – | effect on AMPK activation by compound 8c [9]: blocked AMPK activation by compound 8c both at 1 h and 24 h |
